Data set [1] concerns the target HCV RNA-dependent RNA polymerase (NS5B protein) (Hepatitis C virus genotype 1b, UniProt P26663). The data set can be described thus: biochemical. On the set-up: species or system HCV-Bk strain.
In data set [2] the test system is HCV replicon (genotype 1b) in Huh7 cell line ET. Description: microbe, parasite or virus in culture. As to conditions: read-out: HCV-Replicon-Luci-Et-1b_IC50. The format is cell-based, HCV genotype 1b. In general terms: A replicon is a self-replicating genome or part of one, used to study replication in cells.
The nature of data set [3]: [3H]Thymidine incorporation assay (CC50). The settings on record: human. Background: Incorporation of labelled thymidine or its analogues reports DNA synthesis.
Data set [4] relates to HCV sub-genomic replicon of genotype 1a in cell line W11.8. Description: microbe, parasite or virus in culture. The settings on record: Hepatitis C virus, W11.8, 96 h, read-out: HCV-Replicon-ELISA-1a IC50. The format is cell-based, HCV genotype 1a.

Where two headings read alike, the source gives them in different places.

This passage reports IC50 and CC50 results from patent publication US20130136719A1, “COMPOUNDS AND METHODS FOR THE TREATMENT OR PREVENTION OF FLAVIVIRUS INFECTIONS” (VERTEX PHARMACEUTICALS INCORPORATED, priority 2009, published 2013).

Sequence of HCV RNA-dependent RNA polymerase (NS5B protein) (P26663 2420-2989 limits assumed): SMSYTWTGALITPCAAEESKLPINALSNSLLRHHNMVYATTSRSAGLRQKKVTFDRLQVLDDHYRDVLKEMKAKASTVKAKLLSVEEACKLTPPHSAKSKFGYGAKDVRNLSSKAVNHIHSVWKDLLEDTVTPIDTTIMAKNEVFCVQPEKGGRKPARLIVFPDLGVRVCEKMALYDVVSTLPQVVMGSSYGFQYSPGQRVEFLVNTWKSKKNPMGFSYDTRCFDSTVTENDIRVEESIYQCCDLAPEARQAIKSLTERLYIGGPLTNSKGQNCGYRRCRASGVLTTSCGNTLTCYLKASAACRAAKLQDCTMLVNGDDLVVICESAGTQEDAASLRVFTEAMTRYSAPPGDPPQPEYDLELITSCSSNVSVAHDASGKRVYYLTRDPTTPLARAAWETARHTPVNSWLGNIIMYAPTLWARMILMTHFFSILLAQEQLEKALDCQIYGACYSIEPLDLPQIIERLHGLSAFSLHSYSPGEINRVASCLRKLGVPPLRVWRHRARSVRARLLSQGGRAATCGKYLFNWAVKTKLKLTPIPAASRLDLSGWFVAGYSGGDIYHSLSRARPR

In the case of `CC(C)N(C(=O)c1ccc(Cl)cc1Cl)c1cc(C#CC(C)(C)C)sc1C(=O)O` [Compound 1, 3-[(2,4-Dichloro-benzoyl)-isopropyl-amino]-5-(3,3-dimethyl-but-1-ynyl)-thiophene-2-carboxylic acid], the IC50 in data set [1] (read-out: HCV Polymerase_1b IC50, recombinant truncated NS5B genotype 1b, poly rA/oligo dT, [3H]UTP SPA) was 100 to 1000 nM; in data set [2] it was 100 to 1000 nM.

Take `CC(C)(C)C#Cc1cc(N(C(=O)c2ccc(Cl)cc2Cl)[C@H]2CC[C@H](O)CC2)c(C(=O)O)s1` [Compound 2, 3-[(2,4-Dichloro-benzoyl)-(trans-4-hydroxy-cyclohexyl)-amino]-5-(3,3-dimethyl-but-1-ynyl)-thiophene-2-carboxylic acid]: the IC50 is 100 to 1000 nM in data set [1] and under 100 nM in data set [2] (Hepatitis C virus, Huh-7, 96 h).

The compound `CC(C)(C)C#Cc1cc(N(C(=O)c2ccc(Cl)cc2)[C@H]2CC[C@H](O)CC2)c(C(=O)O)s1` [Compound 16, 3-[(4-Chloro-benzoyl)-(trans-4-hydroxy-cyclohexyl)-amino]-5-(3,3-dimethyl-but-1-ynyl)-thiophene-2-carboxylic acid] displayed an IC50 in data set [1] of 100 to 1000 nM. Further, the CC50 at 72 h in data set [3] fell in the range of 10000 to 100000 nM.

With `CC(C)(C)C#Cc1cc(N(C(=O)c2ccc(Cl)cc2F)[C@H]2CC[C@H](O)CC2)c(C(=O)O)s1` [Compound 17, 3-[(4-Chloro-2-fluoro-benzoyl)-(trans-4-hydroxy-cyclohexyl)-amino]-5-(3,3-dimethyl-but-1-ynyl)-thiophene-2-carboxylic acid], the IC50 in data set [1] was 1000 to 10000 nM; in data set [2] (Hepatitis C virus, Huh-7, 96 h) it was under 100 nM.

As for `Cc1ccc(C(=O)N(c2cc(C#CC(C)(C)C)sc2C(=O)O)[C@H]2CC[C@H](O)CC2)c(C)c1` [Compound 18, 3-[(2,4-Dimethyl-benzoyl)-(trans-4-hydroxy-cyclohexyl)-amino]-5-(3,3-dimethyl-but-1-ynyl)-thiophene-2-carboxylic acid], the IC50 in data set [1] is 100 to 1000 nM; in data set [2] (Hepatitis C virus, Huh-7, 96 h) it was under 100 nM. Further, the CC50 at 72 h in data set [3] fell in the range of 10000 to 100000 nM.

Compound `Cc1ccc(C(=O)N(c2cc(C#CC(C)(C)C)sc2C(=O)O)[C@H]2CC[C@H](O)CC2)cc1` [Compound 19, 5-(3,3-Dimethyl-but-1-ynyl)-3-[(trans-4-hydroxy-cyclohexyl)-(4-methyl-benzoyl)-amino]-thiophene-2-carboxylic acid] yielded an IC50 in data set [1] of 1000 to 10000 nM.

In the case of `CC(C)(C)C#Cc1cc(N(C(=O)c2ccc(C(F)(F)F)cc2)[C@H]2CC[C@H](O)CC2)c(C(=O)O)s1` [Compound 22], the IC50 in data set [1] lay in the range of 1000 to 10000 nM.

`Cc1ccc(C(=O)N(c2cc(C#CC(C)(C)C)sc2C(=O)O)[C@H]2CC[C@H](O)CC2)cc1F` [Compound 24, 5-(3,3-Dimethyl-but-1-ynyl)-3-[(3-fluoro-4-methyl-benzoyl)-(trans-4-hydroxy-cyclohexyl)-amino]-thiophene-2-carboxylic acid]: the IC50 was 1000 to 10000 nM in data set [1] and under 100 nM in data set [2] (Hepatitis C virus, Huh-7, 96 h). Further, the CC50 at 72 h in data set [3] fell in the range of 10000 to 100000 nM.

As for `CC(C)(C)C#Cc1cc(N(C(=O)c2ccc(Cl)cc2Cl)C2CCOCC2)c(C(=O)O)s1` [Compound 26, 3-[(2,4-Dichloro-benzoyl)-(tetrahydro-pyran-4-yl)-amino]-5-(3,3-dimethyl-but-1-ynyl)-thiophene-2-carboxylic acid], the IC50 is 1000 to 10000 nM in data set [1] and under 100 nM in data set [2] (Hepatitis C virus, Huh-7, 96 h). The CC50 at 72 h in data set [3] lay within 10000 to 100000 nM.

As to `COCCN(C(=O)c1ccc(Cl)cc1Cl)c1cc(C#CC(C)(C)C)sc1C(=O)O` [Compound 44, 3-[(2,4-Dichloro-benzoyl)-(2-methoxy-ethyl)-amino]-5-(3,3-dimethyl-but-1-ynyl)-thiophene-2-carboxylic acid], the IC50 in data set [1] is 100 to 1000 nM; in data set [2] (Hepatitis C virus, Huh-7, 96 h), under 100 nM; in data set [4] it was 100 to 1000 nM. Further, the CC50 at 72 h in data set [3] was in the range of 10000 to 100000 nM.

`CC(C)(C)C#Cc1cc(N(C(=O)c2ccc(F)cc2)[C@H]2CC[C@H](O)CC2)c(C(=O)O)s1` [Compound 51, 5-(3,3-Dimethyl-but-1-ynyl)-3-[(4-fluoro-benzoyl)-(trans-4-hydroxy-cyclohexyl)-amino]-thiophene-2-carboxylic acid]: the IC50 in data set [1] is 1000 to 10000 nM. In data set [3], this compound had a CC50 at 72 h of over 100000 nM.

As for `CC(C)(C)C#Cc1cc(N(C(=O)c2ccc(Cl)c(F)c2)[C@H]2CC[C@H](O)CC2)c(C(=O)O)s1` [Compound 52, 3-[(4-Chloro-3-fluoro-benzoyl)-(trans-4-hydroxy-cyclohexyl)-amino]-5-(3,3-dimethyl-but-1-ynyl)-thiophene-2-carboxylic acid], in data set [1], the IC50 lay in the range of 1000 to 10000 nM. This compound returned a CC50 at 72 h in data set [3] of 10000 to 100000 nM.

As for `Cc1ccc(C(=O)N(c2cc(C#CC(C)(C)C)sc2C(=O)O)[C@H]2CC[C@H](O)CC2)c(Cl)c1` [Compound 53, 3-[(2-Chloro-4-methyl-benzoyl)-(trans-4-hydroxy-cyclohexyl)-amino]-5-(3,3-dimethyl-but-1-ynyl)-thiophene-2-carboxylic acid], the IC50 in data set [1] was 1000 to 10000 nM. Also, in data set [3], the CC50 at 72 h lay within 10000 to 100000 nM.

For the compound `Cc1ccc(C(=O)N(c2cc(C#CC(C)(C)C)sc2C(=O)O)[C@H]2CC[C@H](O)CC2)c(F)c1` [Compound 54, 5-(3,3-Dimethyl-but-1-ynyl)-3-[(2-fluoro-4-methyl-benzoyl)-(trans-4-hydroxy-cyclohexyl)-amino]-thiophene-2-carboxylic acid], the IC50 in data set [1] is 1000 to 10000 nM.

The compound `CC(C)(C)C#Cc1cc(N(C(=O)c2ccccc2Cl)[C@H]2CC[C@H](O)CC2)c(C(=O)O)s1` [Compound 87, 3-[(2-Chloro-benzoyl)-(trans-4-hydroxy-cyclohexyl)-amino]-5-(3,3-dimethyl-but-1-ynyl)-thiophene-2-carboxylic acid] registered an IC50 in data set [1] of 1000 to 10000 nM. For the same compound, the CC50 at 72 h in data set [3] was over 100000 nM.

With `Cc1ccccc1C(=O)N(c1cc(C#CC(C)(C)C)sc1C(=O)O)[C@H]1CC[C@H](O)CC1` [Compound 88, 5-(3,3-Dimethyl-but-1-ynyl)-3-[(trans-4-hydroxy-cyclohexyl)-(2-methyl-benzoyl)-amino]-thiophene-2-carboxylic acid], in data set [1], the IC50 is 1000 to 10000 nM. The same compound had a CC50 at 72 h in data set [3] of over 100000 nM.

`Cc1ccc(C(=O)N(c2cc(C#CC(C)(C)C)sc2C(=O)O)[C@H]2CC[C@H](O)CC2)c(F)c1F` [Compound 89, 3-[(2,3-Difluoro-4-methyl-benzoyl)-(trans-4-hydroxy-cyclohexyl)-amino]-5-(3,3-dimethyl-but-1-ynyl)-thiophene-2-carboxylic acid] showed an IC50 in data set [1] of 1000 to 10000 nM. Besides, in data set [3], the CC50 at 72 h was in the range of 10000 to 100000 nM.

Consider `CC(C)N(C(=O)c1ccc(Cl)cc1Cl)c1cc(C#CC(C)(C)C)sc1C(=O)O` [Compound 96, Sodium 3-[(2,4-dichloro-benzoyl)-isopropyl-amino]-5-(3,3-dimethyl-but-1-ynyl)-thiophene-2-carboxylate], for which the IC50 in data set [1] was 100 to 1000 nM; in data set [2] (Hepatitis C virus, Huh-7, 96 h), under 100 nM. For the same compound, the CC50 at 72 h in data set [3] fell in the range of 10000 to 100000 nM.

In the case of `CC(C)(C)C#Cc1cc(N(CCO)C(=O)c2ccc(Cl)cc2Cl)c(C(=O)O)s1` [Compound 97, 3-[(2,4-Dichloro-benzoyl)-(2-hydroxy-ethyl)-amino]-5-(3,3-dimethyl-but-1-ynyl)-thiophene-2-carboxylic acid], the IC50 in data set [1] is 100 to 1000 nM; in data set [2] (Hepatitis C virus, Huh-7, 96 h) it was 100 to 1000 nM. In data set [3], the CC50 at 72 h was in the range of 10000 to 100000 nM.
